Here are results for one compound from patent publication US20160030391A1, “METHODS AND COMPOSITIONS FOR IMPROVING COGNITIVE FUNCTION” (THE JOHNS HOPKINS UNIVERSITY, priority 2013, published 2016).

Assay [1] concerns entorhinal cortex of aMCI subjects. The experiment in a line: fMRI activity in entorhinal cortex during lure stimuli correctly identified as similar. The class given is in vivo, human. Conditions: levetiracetam 125 mg twice a day for two weeks vs placebo. The source says: As described above, the drug treatment period is the two weeks preceding Visit 1 or 2 (with the two week period preceding the other Visit being the placebo phase). […] Imaging data are obtained through high-resolution methods developed in the Stark laboratory. Data are collected on a Phillips 3 Tesla scanner (Eindhoven, The Netherlands) equipped with an 8-channel SENSE (Sensitivity Encoding) head coil, located at the F.M. Kirby Research Center for Functional Brain Imaging at the Kennedy Krieger Institute (Baltimore, Md.). High-resolution echo-planar images are collected using an acquisition matrix of 64×64, a repetition time of 1500 milliseconds, an echo time of 30 milliseconds, a […] of 70 degrees, a SENSE factor of 2, and an isotropic resolution of 1.5 mm×1.5 mm x 1.5 mm with no gap. Nineteen oblique slices are acquired parallel to the principal longitudinal axis of the hippocampus and covered the entire medial temporal lobe region bilaterally. […] Group data are analyzed using a two-way Analysis of Variance (ANOVA) with trial types and group as fixed factors, and subject as a random factor nested within group. […] The activity of the subject's medial temporal lobe is measured by functional MRI during the subject's participation in an explicit 3-alternative forced choice task, where participants view novel, repeated and similar (“lure”) stimuli. […]

Assay [2] relates to reelin in Entorhinal Cortex (EC2). The experiment in a line: reelin in situ hybridization in entorhinal cortex after chronic levetiracetam. It counts as in vivo, rat. The note with it: levetiracetam 10 mg/kg/day, osmotic minipumps, four weeks (28 days), aged-impaired rats. On the procedure:
Under isoflurane anesthesia, memory-impaired aged rats were implanted subcutaneously in the intrascapular region with osmotic mini-pumps (ALZET, Durect Corporation, Cupertino, Calif.) with levetiracetam (10 mg/kg/day) or saline vehicle for four weeks prior to perfusion. Young rats, which served as controls, received either saline vehicle in mini-pumps or no implantation.
At the end of the 4-week treatment period, rats were anesthetized with isoflurane and perfused transcardiacally with 0.1 M phosphate buffer saline, followed by 4% paraformaldehyde in phosphate buffer. Brains were removed and post-fixed in paraformaldehyde overnight. The brains were then moved into 4% paraformaldehyde in phosphate buffer containing 16% sucrose. […]
Probe templates were synthesized as described in Haberman et al. (2008). […] The final probe was resuspended in RNase-free water and the specific activity was determined by scintillation counter.
In situ hybridization was carried out as described by Haberman et al., (2008). […] Slides were dried overnight, exposed to a phosphoimager screen, and quantified by using ImageQuant (GE Healthcare). Digital images were acquired of entorhinal cortical sections from the same levels for all animals and the subregion of interest was outlined and quantified. […]

“Also recorded” adds a separate entry of the source.

With `CC[C@@H](C(N)=O)N1CCCC1=O` [levetiracetam, (2S)-2-(2-oxopyrrolidin-1-yl)butanamide], in assay [1], the “EC activity during memory judgments (fMRI)” value was “increases EC activity”. In assay [2], the “levels of reelin in Entorhinal Cortex (EC2) (reelin mRNA expression)” value is “significantly increased; also recorded: restores”.
